Consider 10 molecules from patent US6906093B2, “Indolinone combinatorial libraries and related products and methods for the treatment of disease” (Sugen, Inc., priority 1995, dated 2005).

In one experiment the target is T1, EGF Receptor (Homo sapiens, UniProt P00533).
T1 construct: expressed in transfected cells; host or cells: NIH 3T3/C7 (3T3/EGFRc7)
Description: EGF Receptor ELISA (EGFR-NIH3T3 assay). Conditions: EGFR-NIH3T3 whole cells. It is filed as cell-based.

Another experiment addresses T2, FLK-1 receptor (Mus musculus, UniProt P35918).
T2 construct: expressed in transfected cells; host or cells: NIH3T3 C7 #3
Description: FLK-1 ELISA in FLK-1/NIH3T3 cells. It is filed as cell-based. Conditions: ELISA, FLK-1/NIH3T3 cells, VEGF stimulated. A general note: An ELISA detects its analyte on a solid surface through an enzyme-linked reagent.

The subject of a further experiment is PDGFR. In words: PDGF-R ELISA (receptor phosphotyrosine in whole cells). Conditions: U1242 cells. It counts as cell-based.
The next experiment concerns the target T3, HER2 Kinase (Homo sapiens, UniProt P04626).
T3 construct: fused on or other part: Candidate partner: EGFR extracellular domain (P00533) in place of HER2's own ectodomain if Assay 1 was used; none if Assay 2 (BT-474) was used
Description: HER-2 ELISA (whole-cell HER2 kinase activity). It counts as cell-based. Particulars: whole cells.

For experiment [1], the system named is HUV-EC-C cells. Description: HUV-EC-C assay, VEGF-induced [3H]thymidine incorporation. It counts as cell-based, human. Conditions: VEGF-stimulated HUV-EC cells, read-out: Mitogenesis in Endothelial Cells, [3H] Thymidine Incorporation, HUV-EC Assay, VEGF. (Incorporation of labelled thymidine or its analogues reports DNA synthesis.)
Description: (§1) Repeat the wash two more times with D-PBS, resuspend the cells in about 1 ml assay medium/15 cm^2 of tissue culture flask.
(§2) Add cells to 96-well flat-bottom plates at 100 μl/well or 0.8-1.0×10^4 cells/well; incubate ˜24 h at 37° C., 5% CO2.
(§3) Use the same assay medium as mentioned in day 0, step 2 above. Titrations are made by adding 90 μl/well of drug at 200 μM (4× the final well concentration) to the top well of a particular plate column. Since the stock drug concentration-is usually 20 mM in DMSO, the 200 μM drug concentration contains 2% DMSO.
(§4) Therefore, diluent made up to 2% DMSO in assay medium (F12K+0.5% fetal bovine serum) is used as diluent for the drug titrations in order to dilute the drug but keep the DMSO concentration constant. Add this diluent to the remaining wells in the column at 60 μl/well. Take 60 μl from the 120 μl of 200 μM drug dilution in the top well of the column and mix with the 60 μl in the second well of the column. Take 60 μl from this well and mix with the 60 μl in the third well of the column, and so on until two-fold titrations-are completed. When the next-to-the-last well is mixed, take 60 μl of the 120 μl in this well and discard it. Leave the last well with 60 μl of DMSO/media diluent as a non-drug-containing control. […] 9 columns of titrated drug, enough for triplicate wells each for 1) VEGF (obtained from Pepro Tech Inc., catalogue no. 100-200, 2) endothelial cell growth factor (ECGF) (also known as acidic fibroblast growth factor, or aFGF) (obtained from Boehringer Mannheim Biochemica, catalogue no. […] ECGF comes as a preparation with sodium heparin.
(§5) Transfer 50 μl/well of the drug dilutions to the 96-well assay plates containing the 0.8-1.0×10^4 cells/100 μl/well of the HUV-EC-C cells from day 0 and incubate ˜2 h at 37° C., 5% CO2.
(§6) In triplicate, add 50 μl/well of 80 μg/ml VEGF, 20 ng/ml ECGF, or media control to each drug condition. As with the drugs, the growth factor concentrations are 4× the desired final concentration. Use the assay media from day 0 step 2 to make the concentrations of growth factors.
Freeze plates overnight at −20° C.
Experiment [2] concerns 3T3/PDGFR + PDGF (T) cells. In words: 3T3/PDGF-βR/PDGF-BB(T) Cell Growth SRB Assay. It counts as cell-based. Particulars: NIH 3T3 cells expressing PDGF-βR and PDGF-ββ, tumor-derived; read-out: Cell Growth Assay, SRB Readout, 3T3/PDGFR + PDGF (T) IC50.
Description: Assay 3: 3T3/PDGF-βR/PDGF-BB(T) Cell Growth SRB Assay
This part of assay is carried out in a laminar flow hood.
Trypsinize cells as usual. Transfer 200 μl of cell suspension to 10 ml of isotone. Count cells on the Coulter Counter.
Dilute cells in growth medium to 60,000 cells/ml. Transfer 100 μl of cells to each well in a 96-well flat bottom plate to give 6000 cells/well.
Gently shake plates to allow for uniform attachment of the cells to the plate.
Incubate the plates at 37° C. in a 10% CO2 incubator.
Day 1: Addition of Compound: same as for Assay 1.
Day 5: Development of Assay: same as for Assay 1.
The subject of experiment [3] is HUV-EC-C cells. Description: HUV-EC-C assay, a-FGF (ECGF)-induced [3H]thymidine incorporation. It is filed as cell-based, human. Conditions: a-FGF-stimulated HUV-EC cells, read-out: Mitogenesis in Endothelial Cells, [3H] Thymidine Incorporation, HUV-EC Assay, a-FGF.
Description: as §1, §2, §3, §4, §5, §6
Freeze plates overnight at −20° C.
The next experiment has as its system EpH4-VEGF. Description: FLK-1/Xenograft Model, subcutaneous tumor growth. It counts as in vivo, mice. On the procedure:
Assay 2: FLK-1/Xenograft Model.
The ability of the compounds of the present invention to inhibit ovarian, melanoma, prostate, lung and mammary tumor cell lines established as SC xenografts was examined. These studies were conducted using doses ranging from 1 to 75 mg/kg/day.
Materials And Methods. The tumor cells were implanted subcutaneously into the indicated strains of mice. Treatment was initiated on day 1 post implantation unless otherwise indicated (e.g. treatment of the SCID mouse related to the A375 melanoma cell line began on Day 9). Eight (8) to sixteen (16) mice comprised each test group.
Animals. Female athymic mice (BALB/c, nu/nu), BALB/c mice, Wistar rats and Fisher 344 rats were obtained from Simonsen Laboratories (Gilroy, Calif.). Female A/I mice were obtained from Jackson Laboratory (Bar Harbor, Me.). DA rats were obtained from B&K Universal, Inc. (Fremont, Calif.). Athymic R/Nu rats, DBA/2N mice, and BALB/c mice were obtained from Harlan Sprague Dawley (Indianapolis, Ind.). Female C57BL/6 mice were obtained from Taconic (Germantown, N.Y.). […]
Subcutaneous Xenograft Model. […] Tumor growth was measured over 3 to 6 weeks using venier calipers tumor volumes were calculated as a product of length×width×height unless otherwise indicated. P values were calculated using the Students' t-test. […]

In another experiment the target is T4, EGFR (Homo sapiens, UniProt P00533).
T4 construct: expressed in transfected cells; host or cells: NIH 3T3/C7 (3T3/EGFRc7)
T4 sequence (P00533 25-1210): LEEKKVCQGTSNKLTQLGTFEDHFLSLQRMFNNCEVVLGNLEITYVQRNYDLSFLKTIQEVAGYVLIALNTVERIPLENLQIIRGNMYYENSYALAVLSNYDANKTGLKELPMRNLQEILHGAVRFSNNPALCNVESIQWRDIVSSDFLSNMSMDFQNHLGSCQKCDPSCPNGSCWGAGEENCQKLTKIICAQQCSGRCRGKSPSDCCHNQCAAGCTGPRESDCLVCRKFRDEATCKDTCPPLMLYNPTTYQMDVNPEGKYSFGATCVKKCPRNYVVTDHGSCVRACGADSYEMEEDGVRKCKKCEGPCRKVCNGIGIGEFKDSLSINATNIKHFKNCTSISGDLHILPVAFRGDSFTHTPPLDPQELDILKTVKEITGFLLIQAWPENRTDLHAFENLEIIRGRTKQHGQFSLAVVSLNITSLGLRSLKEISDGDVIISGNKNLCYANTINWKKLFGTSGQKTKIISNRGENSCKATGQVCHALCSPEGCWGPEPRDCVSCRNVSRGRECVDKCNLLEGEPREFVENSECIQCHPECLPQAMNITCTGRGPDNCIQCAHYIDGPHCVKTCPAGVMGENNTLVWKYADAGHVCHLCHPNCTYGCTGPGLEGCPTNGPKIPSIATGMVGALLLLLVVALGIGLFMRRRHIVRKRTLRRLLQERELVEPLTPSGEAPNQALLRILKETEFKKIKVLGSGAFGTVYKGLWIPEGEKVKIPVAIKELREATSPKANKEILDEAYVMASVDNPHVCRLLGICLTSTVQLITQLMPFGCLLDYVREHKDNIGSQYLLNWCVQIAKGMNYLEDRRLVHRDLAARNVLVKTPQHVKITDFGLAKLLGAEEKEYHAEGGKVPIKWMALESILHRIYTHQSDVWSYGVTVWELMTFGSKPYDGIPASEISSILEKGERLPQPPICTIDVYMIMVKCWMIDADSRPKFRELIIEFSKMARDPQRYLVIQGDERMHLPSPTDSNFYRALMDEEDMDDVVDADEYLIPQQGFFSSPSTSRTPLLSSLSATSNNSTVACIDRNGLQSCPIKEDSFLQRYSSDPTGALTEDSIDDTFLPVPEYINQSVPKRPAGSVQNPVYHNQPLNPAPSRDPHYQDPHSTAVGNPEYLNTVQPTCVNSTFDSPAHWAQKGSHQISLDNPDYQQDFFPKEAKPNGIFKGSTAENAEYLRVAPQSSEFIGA
In words: EGF-Induced BrdU Incorporation Assay in 3T3/EGFR cells. Particulars: EGF ligand; read-out: Mitogenesis in 3T3/EGFR Cells, BrdU Incorporation, EGFR EGF Ligand IC50. It is filed as cell-based.

T3 sequence (P04626 720-987 limits assumed): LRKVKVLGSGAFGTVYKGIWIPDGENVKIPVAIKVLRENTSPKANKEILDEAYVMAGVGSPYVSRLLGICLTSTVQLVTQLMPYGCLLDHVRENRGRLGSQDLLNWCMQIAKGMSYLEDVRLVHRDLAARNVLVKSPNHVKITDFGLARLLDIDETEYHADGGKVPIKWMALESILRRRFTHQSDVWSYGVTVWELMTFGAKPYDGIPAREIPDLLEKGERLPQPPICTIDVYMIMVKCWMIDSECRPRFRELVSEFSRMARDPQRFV
T1 sequence (P00533 25-1210): as the sequence (P00533 25-1210) above
T2 sequence (P35918 20-1345): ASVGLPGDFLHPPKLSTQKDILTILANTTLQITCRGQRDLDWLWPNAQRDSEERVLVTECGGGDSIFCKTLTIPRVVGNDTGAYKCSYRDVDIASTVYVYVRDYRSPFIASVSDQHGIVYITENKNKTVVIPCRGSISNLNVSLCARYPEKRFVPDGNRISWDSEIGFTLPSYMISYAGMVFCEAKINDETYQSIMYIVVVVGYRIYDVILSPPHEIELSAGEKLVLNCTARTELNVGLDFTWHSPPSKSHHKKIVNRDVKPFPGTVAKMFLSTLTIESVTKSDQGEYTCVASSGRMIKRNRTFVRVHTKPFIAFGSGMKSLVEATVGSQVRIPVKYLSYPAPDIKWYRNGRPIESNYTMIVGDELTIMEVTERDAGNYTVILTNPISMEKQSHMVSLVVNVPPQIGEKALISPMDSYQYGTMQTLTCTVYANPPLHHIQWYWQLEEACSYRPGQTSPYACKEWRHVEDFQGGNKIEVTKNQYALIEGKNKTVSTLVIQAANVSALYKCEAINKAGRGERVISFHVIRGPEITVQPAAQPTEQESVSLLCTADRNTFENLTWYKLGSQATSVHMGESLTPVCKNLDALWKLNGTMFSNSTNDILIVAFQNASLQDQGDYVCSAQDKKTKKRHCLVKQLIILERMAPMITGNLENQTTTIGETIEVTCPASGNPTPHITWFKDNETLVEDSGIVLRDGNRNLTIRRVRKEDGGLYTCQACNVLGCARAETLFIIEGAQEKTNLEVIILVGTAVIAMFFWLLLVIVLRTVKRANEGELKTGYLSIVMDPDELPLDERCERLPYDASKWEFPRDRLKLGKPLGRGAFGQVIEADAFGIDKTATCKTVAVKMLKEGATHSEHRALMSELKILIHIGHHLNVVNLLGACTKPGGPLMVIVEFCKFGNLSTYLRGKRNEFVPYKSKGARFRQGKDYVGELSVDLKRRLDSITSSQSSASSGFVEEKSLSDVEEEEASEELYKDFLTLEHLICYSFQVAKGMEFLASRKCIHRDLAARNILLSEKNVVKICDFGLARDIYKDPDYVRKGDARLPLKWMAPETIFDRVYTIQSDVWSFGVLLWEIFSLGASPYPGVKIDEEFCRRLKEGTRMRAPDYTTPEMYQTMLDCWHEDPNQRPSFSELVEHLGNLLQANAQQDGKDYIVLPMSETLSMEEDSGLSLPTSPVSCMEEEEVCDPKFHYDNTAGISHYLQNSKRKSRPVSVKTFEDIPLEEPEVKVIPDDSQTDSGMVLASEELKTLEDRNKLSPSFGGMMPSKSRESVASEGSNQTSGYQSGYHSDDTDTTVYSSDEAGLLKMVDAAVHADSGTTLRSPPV
Description for EGF Receptor: EGF Receptor kinase activity (EGFR-NIH3T3 assay) in whole cells was measured as described below:
Materials and Reagents. The following materials and reagents were used • a. […] Anti-phosphotyosine antibody (anti-Ptyr) (polyclonal). • d. Detection antibody: Goat anti-rabbit lgG horse radish peroxidase conjugate, TAGO, Inc., Burlingame, Calif. • e. TBST buffer:
• Keep solution in dark at 4° C. until used. • h. Stock reagents of: • EDTA 100 mM pH 7.0 • Na3VO4 0.5 M • Na4(P2O7) 0.2 M
(§7) Procedure. The following protocol was used:
1. […] Coated plates are good for up to 10 days when stored at 4° C.
2. On day of use, remove coating buffer and replace with blocking buffer (5% Carnation Instant NonFat Dry Milk in PBS). Incubate the plate, shaking, at room temperature (about 23° C. to 25° C.) for 30 minutes. Just prior to use, remove blocking buffer and wash plate 4 times with TBST buffer.
2. Choose dishes having 80-90% confluence for the experiment. Trypsinize cells and stop reaction by adding. 10% CS DMEM medium. Suspend cells in DMEM medium (10% CS DMEM medium) and centrifuge once at 1000 rpm, and once at room temperature for 5 minutes.
3. Resuspend cells in seeding medium (DMEM, 0.5% bovine serum), and count the cells using trypan blue. Viability above 90% is acceptable. Seed cells in DMEM medium (0.5% bovine serum) at a density of 10,000 cells per well, 100 μl per well, in a 96 well microtiter plate. Incubate seeded cells in 5% CO2 at 37° C. for about 40 hours.
1. Check seeded cells for contamination using an inverted microscope. Dilute drug stock (10 mg/ml in DMSO) 1:10 in DMEM medium, then transfer 5 μl to a test well for a final drug dilution of 1:200 and a final DMSO concentration of 1%. Control wells receive DMSO alone. Incubate in 5% CO2 at 37° C. for one hour.
5. […] Control wells receive. DMEM alone. […]
The maximal phosphotyrosine signal is determined by subtracting the value of the negative controls from the positive controls. The percent inhibition of phosphotyrosine content for extract-containing wells is then calculated, after subtraction of the negative controls.
Description for HER2 Kinase: Assay 1: EGF Receptor-HER2 Chimeric Receptor Assay In Whole Cells. HER2 kinase activity in is whole EGFR-NIH3T3 cells was measured as described below:
Materials and Reagents. The following materials and reagents were used to conduct the assay: • a. […] Anti-phosphotyrosine antibody (anti-Ptyr) (polyclonal) (see, Fendley, et al., supra). • d. Detection antibody: Goat anti-rabbit lgG horse radish peroxidase conjugate, TAGO, Inc., Burlingame, Calif. • e. TBST buffer:
Stock reagents of: • EDTA 100 mM pH 7.0 • Na3VO4 0.5 M • Na4(P2O7) 0.2 M
as §7
Coated plates are good for up to 10 days when stored at 4° C.
On day of use, remove coating buffer and replace with 100 μl blocking buffer (5% Carnation Instant Non-Fat Dry Milk in PBS). Incubate the plate, shaking, at room temperature (about 23° C. to 25° C.) for 30 minutes. Just prior to use, remove blocking buffer and wash plate 4 times with TBST buffer.
An NIH3T3 cell line overexpressing a chimeric receptor containing the EGFR extracellular domain and extracellular HER2 kinase domain can be used for this assay.
Choose dishes having 80-90% confluence for the experiment. Trypsinize cells and stop reaction by adding 10% fetal bovine serum. Suspend cells in DMEM medium (10% CS DMEM medium) and centrifuge once at 1500 rpm, at room temperature for 5 minutes.
Resuspend cells in seeding medium (DMEM, 0.5% bovine serum), and count the cells using trypan blue. Viability above 90% is acceptable. Seed cells in DMEM medium (0.5% bovine serum) at a density of 10,000 cells per well, 100 μl per well, in a 96 well microtiter plate. Incubate seeded cells in 5% CO2 at 37° C. for about 40 hours.
Check seeded cells for contamination using an inverted microscope. Dilute drug stock (10 mg/ml in DMSO) 1:10 in DMEM medium, then transfer 5 l to a TBST well for a final drug dilution of 1:200 and a final DMSO concentration of 1%. Control wells receive DMSO alone. Incubate in 5% CO2 at 37° C. for two hours.
Prepare EGF ligand: dilute stock EGF in DMEM so that upon transfer of 10 μl dilute EGF (1:12 dilution), 100 nM final concentration is attained.
Prepare fresh HNTG* sufficient for 100 μl per well; and place on ice.
After 120 minutes incubation with drug, add prepared SGF ligand to cells, 10 μl per well, to a final concentration of 100 nM. Control wells receive DMEM alone. Incubate, shaking, at room temperature, for 5 minutes.
Remove drug, EGF, and DMEM. Wash cells twice with PBS. Transfer HNTG* to cells, 100 μl per well. Place on ice for 5 minutes. Meanwhile, remove blocking buffer from other ELISA plate and wash with TBST as described above. […]
The maximal phosphotyrosine signal is determined by subtracting the value of the negative controls from the positive controls.

`COc1ccccc1C=C1C(=O)Nc2ccccc21` [SU5214, 3-(2-Methoxybenzylidenyl)-2-indolinone]: the IC50 at EGF Receptor was 36.7 µM; against FLK-1 receptor it was 14.8 µM.

As for `O=CN1CCN(c2ccc(C=C3C(=O)Nc4ccccc43)cc2)CC1` [SU4984, 3-[4-(4-Formylpiperazin-1-yl)benzylidenyl]-2-indolinone], the IC50 in the experiment on PDGFR worked out at 5.8 µM; at HER2 Kinase it was 90.2 µM; with HUV-EC-C cells [1] it was 0.8 µM; in experiment [2], 22.2 µM; at FLK-1 receptor, 1.6 µM; in the experiment with HUV-EC-C cells [3] it was 25.8 µM.

For the molecule `CN1C(=O)C(=Cc2ccc(Br)cc2)c2ccccc21` [SU4956, 3-(4-Bromobenzylidenyl)-1-methyl-2-indolinone], on HER2 Kinase, the IC50 came out at 22.5 µM.

As to `CCc1ccc(C=C2C(=O)Nc3ccccc32)s1` [SU5451, 3-[(2-Ethylthien-5-yl)methylene]-2-indolinone], the IC50 against EGF Receptor is 44 µM; on FLK-1 receptor, 3.4 µM.

Consider `O=C1Nc2ccccc2C1=Cc1ccc(N2CCCCC2)cc1` [SU5450, 3-[4-(Piperidin-1-yl)benzylidenyl]-2-indolinone], for which the IC50 at HER2 Kinase came to 92.6 µM; against FLK-1 receptor it was 4.5 µM.

As for `CN(C)c1c(C=C2C(=O)Nc3ccccc32)cc(C=C2C(=O)Nc3ccccc32)c(N(C)C)c1C#N` [SU5218, 2,6-Di-(dimethylamino)-3,5-di-[(indolin-2-one-3-ylidenyl)methyl]-phenylcyanide], the IC50 is 2.4 µM in the experiment on HUV-EC-C cells [1] (Homo sapiens, HUVEC); 6.4 µM against FLK-1 receptor; 2.7 µM with HUV-EC-C cells [3] (Homo sapiens, HUVEC).

With `O=C1Nc2ccccc2C1=Cc1ccc(Br)cc1` [SU4942, 3-(4-Bromobenzylidenyl)-2-indolinone], the “EpH4-VEGF % inhibition @ mg/kg” value worked out at 47% @ 25 with EpH4-VEGF (@ 25 mg/kg) and 46% @ 50 in the experiment on EpH4-VEGF (@ 50 mg/kg). Further, the IC50 in the experiment with HUV-EC-C cells [3] turned out to be 4.6 µM.

For `COc1ccc(C=C2C(=O)Nc3ccccc32)c(Cl)c1` [SU5480, 3-[2-Chloro-4-methoxybenzylidenyl]-2-indolinone], the IC50 was 39.6 µM against EGF Receptor and 5.3 µM on FLK-1 receptor.

As for `CN1C(=O)C(=Cc2ccc(N3CCOCC3)cc2)c2ccccc21` [SU4982, 1-Methyl-3-[4-(morpholin-4-yl)benzylidenyl]-2-indolinone], the IC50 was 39.4 µM on HER2 Kinase and 21.6 µM against FLK-1 receptor.

For the molecule `O=C1Nc2ccccc2C1=Cc1cnc[nH]1` [SU5473, 3-[(Imidazol-4-yl)methylene]-2-indolinone], the IC50 with HUV-EC-C cells [1] (Homo sapiens, HUVEC) came to 1.2 µM; against FLK-1 receptor, 1.5 µM; at EGFR, 54 µM; in the experiment on HUV-EC-C cells [3] (Homo sapiens, HUVEC) it was 14.1 µM.
